Results: patent US20040235884A1, “Preventives/remedies for cholinergic neuropathy” (priority 2001, published 2004)

Experiments:
[1] = test system: high-affinity choline uptake of hippocampal membrane samples; assay: Sustention of action on high-affinity choline uptake: hippocampal membrane samples prepared after single or consecutive administration to AF64A-treated rats; format: in vivo; conditions: for HACU promotion: FIG. 6
Text: (§1) Because the compound of the formula (I), particularly 4-acylamino-5,6,7,8-tetrahydrofuro[2,3-b]quinoline derivative, has the above-mentioned mechanism, the promoting action on the high-affinity choline uptake is considered to be dependent on the density of high-affinity choline transporters on the nerve terminal, and therefore, to show a shift independent of the elimination rate of a drug. To clarify this point, the sustained promoting action on the high-affinity choline uptake was examined by monitoring the changes in efficacy when the aforementioned AF64A-treated rats were subjected to single and consecutive administration(s) of a drug. In the test, Compound A at each concentration or a solvent (vehicle) was administered singly or consecutively to AF64A-treated animals and the animals that underwent a sham operation. After a given time, the animals were slaughtered and hippocampal membrane samples (P2 fraction) were prepared by a conventional method. These membrane samples were incubated in Ringer's solution supplemented with [^3H) choline at 37° C. for 10 min. After the completion of the incubation, the membrane samples were filtrated on a glass fiber filter using a cell harvester and washed three times with a buffer. After thorough drying, a scintillator was added and the radioactivity of the membrane samples was measured on a liquid scintillation counter. The non-specific uptake was that in the presence of hemicholinium-3 (10 μM) in a sodium ion free Ringer's solution. To establish the close relationship between the efficacy observed here and an improving action on the dementia symptoms, the improving effect on the water maze-learning disorder observed in the AF64A-treated rats was also studied at a given time after drug administration for 8 consecutive days.

[2] = test system: high-affinity choline transporter; assay: [3H]hemicholinium-3 binding to hippocampal membrane samples after pre-incubation with drug; Scatchard-plot; parameters: species or system rats
Procedure: The action of the compound of the formula (I), particularly 4-acylamino-5,6,7,8-tetrahydrofuro[2,3-b]quinoline derivative, relative to the density of the high-affinity choline transporter on the nerve terminal was examined using [^3H]hemicholinium-3, which is a specific labeled ligand of a high-affinity choline transporter (SYNAPSE No. 1, pp. 293-303, 1987). The aforementioned AF64A-treated rats were used in this test, too. Hippocampal membrane samples (P2 fraction) were prepared according to a conventional method from the AF64A-treated animals and the sham operation animals. These membrane samples were incubated in Ringer's solution with Compound A at each concentration or a solvent (vehicle) at 37° C. for 30 min. After the completion of the incubation, the drug was removed from the reaction mixture by centrifugation at 4° C. and the membrane samples were washed. The drug-treated membrane samples thus obtained were suspended in a solution containing [^3H] hemicholinium-3, and incubated overnight at 4° C. […] After thorough drying, a scintillator was added and the radioactivity of the membrane samples was measured on a liquid scintillation counter. […] For the analysis of binding mode, Scatchard-plot was used and the maximum binding Bmax and dissociation constant Kd were calculated.

[3] = test system: high-affinity choline uptake of hippocampal synaptosome (membrane sample); assay: Effect on high-affinity choline uptake, [3H]choline, hippocampal synaptosome (membrane sample, P2 fraction) of AF64A-treated rats, in vitro incubation; format: biochemical, male Wistar rats; conditions: membrane samples with choline uptake reduced by AF64A treatment; incubation 37° C. 30 min; FIG. 1
Procedure: The action of the compound of the formula (I), particularly 4-acylamino-5,6,7,8-tetrahydrofuro[2,3-b]quinoline derivative, on the high-affinity choline uptake was examined using [^3H] choline and hippocampal synaptosome (membrane sample). AF64A (3 μmol), which is a neurotoxin specific to the cholinergic nerve, was administered to male Wistar rats into the cerebral ventricles bilaterally. The rats were subjected to an experiment after a recovery period of about 10 days. Hippocampal membrane samples (P2 fraction) were prepared by a conventional method from these animals and the animals that underwent a sham operation. These membrane samples were incubated in Ringer's solution with Compound A at each concentration or a solvent (vehicle) at 37° C. for 30 min. [^3H] Choline was added to the reaction mixture, and the mixture was incubated for 10 min. After the completion of the incubation, the membrane samples were filtrated on a glass fiber filter using a cell harvester and washed three times with a buffer. After thorough drying, a scintillator was added and the radioactivity of the membrane samples was measured on a liquid scintillation counter. Non-specific uptake was done under ice-cooling.

AF64A-treated rats = assay: Water maze-learning disorder test in AF64A-treated rats; format: in vivo; conditions: FIG. 7
Text: as §1, with “The non-specific uptake was that in the presence of hemicholinium-3 (10 μM) in a sodium ion free Ringer's solution. To establish the close relationship between the efficacy observed here and an improving action on the dementia symptoms, the improving effect on the water maze-learning disorder observed in the AF64A-treated rats was also studied at a given time after drug administration for 8 consecutive days.” left out

For `Cc1oc2nc3c(c(NC(=O)CN4CCCC4=O)c2c1C)CCCC3` [Compound A, 2-(2-oxopyrrolidin-1-yl)-N-(2,3-dimethyl-5,6,7,8-tetrahydrofuro[2,3-b)quinolin-4-yl)acetamide], the HACU promotion ([1]; 24 h after administration for 4 consecutive days) was “significant HACU promotion was not observed”, the HACU promotion ([1]; 24 h after administration for 16 consecutive days) was “same level of improving effect as with the administration for 8 consecutive days” and the HACU promoting action ([1]; administration for 8 consecutive days, 24 h from the final administration, FIG. 5) was “significant HACU promoting action was observed”. The HACU promoting action ([1]; administration for 8 consecutive days, 48 h later, FIG. 5) was “sustained”, the HACU promoting action ([1]; administration for 8 consecutive days, 72 h, FIG. 5) was “disappeared” and the HACU promoting action ([1]; single administration, 1 h after administration, FIG. 4) was “significant promotion of HACU”. For the same molecule, the HACU promoting action ([1]; single administration, 3 h after administration, FIG. 4) was “significant promotion of HACU”, the HACU promoting action ([1]; single administration, 24 h later, FIG. 4) was “attenuated” and the “action on maximum binding Bmax of hemicholinium-3 (transporter number on membrane surface)” value ([2]; Scatchard-plot analysis, FIG. 3) was “increasing action on the maximum binding Bmax”. For the same molecule, the “binding of [3H]hemicholinium-3 on the hippocampal membrane sample” value ([2]; incubation in advance with drug, 37° C. 30 min, FIG. 2) was “increased dose-dependently”, the “choline uptake of hippocampal membrane samples” value [3] was “significantly improved” and the “improving effect on learning disorder (water maze)” value (AF64A-treated rats; 24 h after the administration for 8 consecutive days) was “significant improving effect on learning disorder”. The “improving effect on learning disorder (water maze)” value (AF64A-treated rats; 48 h after the administration for 8 consecutive days) was “significant improving effect on learning disorder”.
